Reference: patent US9481659B2, “Selective heterocyclic sphingosine 1 phosphate receptor modulators” (Celgene International II SÀRL, priority 2011, dated 2016)
Where a name gives a salt, the structure may show the parent alone.

Target: S1P1/EDG1 (Homo sapiens, UniProt P21453)
Assay: S1P1 CRE-bla CHOK1 reporter assay, inhibition of Forskolin induced cAMP
Type: cell-based
Conditions: agonist activity range; S1P1 CRE-bla CHOK1 cells, 2 μM Forskolin; read-out: S1P1 ACTIVITY
Description: Generation of S1P1-Mediated Inhibition of cAMP Reporter Assay
A mammalian expression plasmid containing S1P1/EDG1 cloned into pcDNA3.1 was purchased from Missouri S&T cDNA Resource Centre. […] S1P1/pcDNA3.1 was transfected into the CRE-bla CHO K1 (Invitrogen) cell line, and stable single cell clones were selected using standard techniques.
S1P1 CRE-Bla CHOK1 Reporter Assay—Characterization of S1P1 Agonists
Cells were seeded into 384-well black wall/clear bottom plates at 10^4 cells/well/19.5 μl assay media (DMEM-phenol free, 0.5% charcoal/dextran stripped serum, 2 mM glutamine, 0.1 mM NEAA, 1 mM Na-Pyruvate, 25 mM Hepes) and incubated for 18 hrs at 37° C. in 5% CO2. Dose response curves (10-point) were generated in 10 mM Hepes, 0.1% Pluronic F127, in the presence of Forskolin. Cells were treated with 0.5 μl compound in the presence of 2 μM Forskolin for 4 hrs at 37° C. The FRET-based β-lactamase fluorescent substrate (LiveBLAzer™-FRET B/G Loading Kit CC4-AM; Invitrogen) was prepared according to manufacturer's directions, and incubated with cells for 2 hrs at room temperature.

Sequence of S1P1/EDG1 (P21453 whole entry): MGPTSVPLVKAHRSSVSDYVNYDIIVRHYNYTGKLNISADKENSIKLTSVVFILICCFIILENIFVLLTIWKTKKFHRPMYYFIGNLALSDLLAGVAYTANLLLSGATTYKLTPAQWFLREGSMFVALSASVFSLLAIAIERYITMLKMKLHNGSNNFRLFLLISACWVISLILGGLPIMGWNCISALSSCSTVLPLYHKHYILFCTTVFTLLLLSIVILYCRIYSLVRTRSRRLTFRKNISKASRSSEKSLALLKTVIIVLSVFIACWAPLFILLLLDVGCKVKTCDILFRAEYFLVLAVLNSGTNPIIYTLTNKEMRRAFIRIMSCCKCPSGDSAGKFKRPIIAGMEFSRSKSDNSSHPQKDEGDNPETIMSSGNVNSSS

Row | SMILES | EC50
1 | CC(C)Oc1ccc(-c2nc(-c3cccc4c3CC[C@@H]4N)ns2)cc1C#N [Compound 307, (S)-5-(3-(1-amino-2,3-dihydro-1H-Inden-4-yl)-1,2,4-thiadiazol-5-yl)-2-isopropoxy benzonitrile hydrochloride] | 0.5 to 5 nM
2 | CC(C)Oc1ccc(-c2nc(-c3cccc4c3CC[C@@H]4NS(=O)(=O)CCO)ns2)cc1C#N [Compound 314, (S)—N-(4-(5-(3-cyano-4-isopropoxyphenyl)-1,2,4-thiadiazol-3-yl)-2,3-dihydro-1H-inden-1-yl)-2-hydroxyethanesulfonamide] | 0.5 to 5 nM
3 | CCOC(=O)CCS(=O)(=O)N[C@H]1CCCc2c(-c3nnc(-c4ccc(OC(C)C)c(C#N)c4)s3)cccc21 [Compound 286, (S)-ethyl 3-(N-(5-(5-(3-cyano-4-isopropoxyphenyl)-1,3,4-thiadiazol-2-yl)-1,2,3,4-tetrahydronaphthalen-1-yl)sulfamoyl)propanoate] | 0.05 to 0.5 nM
4 | COCC(=O)N[C@@H]1CCc2c(-c3cnc(-c4ccc(OC(C)C)c(C#N)c4)s3)cccc21 [Compound 75] | 0.05 to 0.5 nM
5 | COC(=O)CS(=O)(=O)N[C@H]1CCc2c(-c3nsc(-c4ccc(OC(C)C)c(C#N)c4)n3)cccc21 [Compound 313, (S)-methyl 2-(N-(4-(5-(3-cyano-4-isopropoxyphenyl)-1,2,4-thiadiazol-3-yl)-2,3-dihydro-1H-inden-1-yl)sulfamoyl)acetate] | 0.05 to 0.5 nM
6 | CC(C)Oc1ccc(-c2nnc(-c3cccc4c3CCC[C@H]4NS(=O)(=O)CC(=O)O)s2)cc1C#N [Compound 287, (R)-2-(N-(5-(5-(3-cyano-4-isopropoxyphenyl)-1,3,4-thiadiazol-2-yl)-1,2,3,4-tetrahydronaphthalen-1-yl)sulfamoyl)acetic acid] | 0.05 to 0.5 nM
7 | CC(C)Oc1ccc(-c2ncc(-c3cccc4c3CC[C@H]4NC(=O)N3CCC[C@@H](O)C3)s2)cc1C#N [Compound 198] | 0.05 to 0.5 nM
8 | CC(C)Oc1ccc(-c2nnc(-c3cccc4c3CCC[C@@H]4NC(=O)CO)s2)cc1C#N [Compound 246, (S)—N-(5-(5-(3-cyano-4-isopropoxyphenyl)-1,3,4-thiadiazol-2-yl)-1,2,3,4-tetrahydronaphthalen-1-yl)-2-hydroxyacetamide] | 0.05 to 0.5 nM
9 | CC(C)Oc1ccc(-c2ncc(-c3cccc4c3CC[C@H]4NS(=O)(=O)CCN3CCC[C@@H](O)C3)s2)cc1C#N [Compound 143, N—((R)-4-(2-(3-cyano-4-isopropoxyphenyl)thiazol-5-yl)-2,3-dihydro-1H-inden-1-yl)-2-((R)-3-hydroxypiperidin-1-yl)ethanesulfonamide] | 0.5 to 5 nM
10 | CC(C)Oc1ccc(-c2ncc(-c3cccc4c3CC[C@H]4NC(=O)N3CC(O)C3)s2)cc1C#N [Compound 171] | 0.05 to 0.5 nM
11 | CC(C)Oc1ccc(-c2nnc(-c3cccc4c3CCC[C@@H]4NS(=O)(=O)CC(=O)O)s2)cc1C#N [Compound 288, (S)-2-(N-(5-(5-(3-cyano-4-isopropoxyphenyl)-1,3,4-thiadiazol-2-yl)-1,2,3,4-tetrahydronaphthalen-1-yl)sulfamoyl) acetic acid] | 0.05 to 0.5 nM
12 | CC(C)Oc1ccc(-c2nnc(-c3cccc4c3CCC[C@H]4N)s2)cc1C#N [Compound 228, (R)-5-(5-(5-amino-5,6,7,8-tetrahydronaphthalen-1-yl)-1,3,4-thiadiazol-2-yl)-2-isopropoxybenzonitrile hydrochloride] | 0.5 to 5 nM
13 | CC(C)Oc1ccc(-c2nnc(-c3cccc4c3CCC[C@H]4NCc3c[nH]cn3)s2)cc1C#N [Compound 261] | > 5 nM
14 | CC(C)Oc1ccc(-c2ncc(-c3cccc4c3CC[C@H]4NS(=O)(=O)CCN3CCOCC3)s2)cc1C#N [Compound 121] | 0.5 to 5 nM
15 | COC(=O)CC1CCN(C(=O)N[C@@H]2CCc3c(-c4cnc(-c5ccc(OC(C)C)c(C#N)c5)s4)cccc32)CC1 [Compound 204] | 0.5 to 5 nM
16 | CC(C)Oc1ccc(-c2nsc(-c3cccc4c3CC[C@@H]4N)n2)cc1C#N [Compound 308, (S)-5-(5-(1-amino-2,3-dihydro-1H-inden-4-yl)-1,2,4-thiadiazol-3-yl)-2-isopropoxy benzonitrile hydrochloride] | 0.5 to 5 nM

Row | SMILES | EC50
17 | CC(C)Oc1ccc(-c2nsc(-c3cccc4c3CC[C@@H]4NS(N)(=O)=O)n2)cc1C#N [Compound 310, (S)—N-(4-(3-(3-cyano-4-isopropoxyphenyl)-1,2,4-thiadiazol-5-yl)-2,3-dihydro-1H-inden-1-yl) sulfamide] | 0.05 to 0.5 nM
18 | CC(C)Oc1ccc(-c2nnc(-c3cccc4c3CC[C@H]4NC(=O)N3CCC(O)CC3)s2)cc1C#N [Compound 62] | 0.5 to 5 nM
19 | CC(C)Oc1ccc(-c2ncc(-c3cccc4c3CC[C@H]4NC(=O)N3CCC[C@H](O)C3)s2)cc1C#N [Compound 197] | 0.5 to 5 nM
20 | CNCC(=O)N[C@@H]1CCCc2c(-c3nnc(-c4ccc(OC(C)C)c(C#N)c4)s3)cccc21 [Compound 251] | 0.5 to 5 nM
21 | CC(C)Oc1ccc(-c2nnc(-c3cccc4c3CCC[C@H]4NC(=O)CO)s2)cc1C#N [Compound 245, (R)—N-(5-(5-(3-cyano-4-isopropoxyphenyl)-1,3,4-thiadiazol-2-yl)-1,2,3,4-tetrahydronaphthalen-1-yl)-2-hydroxyacetamide] | 0.05 to 0.5 nM
22 | CC(=O)N[C@@H]1CCCc2c(-c3nnc(-c4ccc(OC(C)C)c(C#N)c4)s3)cccc21 [Compound 231, (R)—N-(5-(5-(3-cyano-4-isopropoxyphenyl)-1,3,4-thiadiazol-2-yl)-1,2,3,4-tetrahydronaphthalen-1-yl) acetamide] | 0.05 to 0.5 nM
23 | CC(C)Oc1ccc(-c2nnc(-c3cccc4c3CC[C@H]4NC(=O)CN)s2)cc1C#N [Compound 9] | 0.05 to 0.5 nM
24 | CC(C)Oc1ccc(-c2nnc(-c3cccc4c3CCC[C@@H]4NS(=O)(=O)CCCO)s2)cc1C#N [Compound 291] | 0.05 to 0.5 nM
25 | CC(C)Oc1ccc(-c2ncc(-c3cccc4c3CC[C@H]4NS(=O)(=O)CCN3CCCC3)s2)cc1C#N [Compound 130] | 0.5 to 5 nM
26 | CC(C)Oc1ccc(-c2nnc(-c3cccc4c3CCC[C@H]4NS(=O)(=O)CCO)s2)cc1C#N [Compound 289, (R)—N-(5-(5-(3-cyano-4-isopropoxyphenyl)-1,3,4-thiadiazol-2-yl)-1,2,3,4-tetrahydronaphthalen-1-yl)-2-hydroxyethanesulfonamide] | 0.05 to 0.5 nM
27 | CC(C)Oc1ccc(-c2nnc(-c3cccc4c3CC[C@H]4NCC(=O)N3CCCC3)s2)cc1C#N [Compound 39] | 0.05 to 0.5 nM
28 | CC(C)Oc1ccc(-c2ncc(-c3cccc4c3CC[C@@H]4NCC(=O)N3CC[C@@H](O)C3)s2)cc1C#N [Compound 105] | > 5 nM
29 | CC(C)Oc1ccc(-c2nnc(-c3cccc4c3CCC[C@H]4NCCO)s2)cc1C#N [Compound 299, (R)-5-(5-(5-((2-hydroxyethyl)amino)-5,6,7,8-tetrahydronaphthalen-1-yl)-1,3,4-thiadiazol-2-yl)-2-isopropoxybenzonitrile] | 0.5 to 5 nM
30 | CC(C)Oc1ccc(-c2nnc(-c3cccc4c3CC[C@H]4NCC(=O)O)s2)cc1C#N [Compound 27, (R)-2-((4-(5-(3-cyano-4-isopropoxyphenyl)-1,3,4-thiadiazol-2-yl)-2,3-dihydro-1H-inden-1-yl)amino)acetic acid] | 0.05 to 0.5 nM
31 | CC(C)Oc1ccc(-c2nnc(-c3cccc4c3CC[C@H]4NC(=O)N3CC(C(=O)O)C3)s2)cc1C#N [Compound 50] | 0.05 to 0.5 nM
32 | CC(C)Oc1ccc(-c2nnc(-c3cccc4c3CC[C@H]4NCC(=O)N3CCOCC3)s2)cc1C#N [Compound 25] | 0.05 to 0.5 nM
